Like-named read-outs stand apart in the source and are kept apart here. Where a SMILES comes first, the peptide text is derived from it. Where no end group is shown, it is not given here. [ ]: non-standard residue; d: D form. The star is where a group is joined. For = O=C*
Key:
[1] = target: T1, Hs_FPR1 (Homo sapiens, UniProt P21462); assay: Competition binding of fluorescent WKYMVm, flow cytometry; conditions: for Log IC50 (M): log of IC50, competition with 10 nM K(5/6-FAM)-WKYMVm, HEK293 stable cells, on ice 90 min; for Log IC50 (M) / Max Comp (%): mean, ND = no competition observed; for Max Comp (%): maximum proportion of competition with 10 nM K(5/6-FAM)-WKYMVm
T1 construct: expressed in transfected cells
T1 sequence (P21462 1-350): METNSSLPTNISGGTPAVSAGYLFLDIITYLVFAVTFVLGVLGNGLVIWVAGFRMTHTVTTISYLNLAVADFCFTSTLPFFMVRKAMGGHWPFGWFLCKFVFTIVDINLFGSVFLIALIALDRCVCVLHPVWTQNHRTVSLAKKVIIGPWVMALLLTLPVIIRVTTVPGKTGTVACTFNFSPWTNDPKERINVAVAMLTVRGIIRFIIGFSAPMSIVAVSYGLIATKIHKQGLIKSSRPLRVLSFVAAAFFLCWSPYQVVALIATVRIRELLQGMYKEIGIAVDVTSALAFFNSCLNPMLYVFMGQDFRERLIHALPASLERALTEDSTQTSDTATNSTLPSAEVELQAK
Protocol: (§1) Mean cell fluorescence was then measured for 5000 cells by flow cytometry using either a BD FACScalibur or BD Attune.
(§2) All data were analyzed using GraphPad Prism using the nonlinear regression log(agonist) versus response (3 parameters) function for all assays, except binding, which was analyzed using the One site-FitlogIC50 function. Bias calculations were carried out following IUPHAR guidelines as described,[27]^,[37] and data were presented as the Δ Activity ratio (Log[EmaxB/EC50B])-(Log[EmaxA/EC50A]).

[2] = target: T2, Hs_FPR2 (Homo sapiens, UniProt P25090); assay: as above; conditions: for Log IC50 (M): log of IC50, competition with 10 nM K(5/6-FAM)-WKYMVm, HEK293 stable cells, on ice 90 min; for Log IC50 (M) / Max Comp (%): mean, ND = no competition observed; for Max Comp (%): maximum proportion of competition with 10 nM K(5/6-FAM)-WKYMVm
T2 construct: expressed in transfected cells
T2 sequence (P25090 1-351): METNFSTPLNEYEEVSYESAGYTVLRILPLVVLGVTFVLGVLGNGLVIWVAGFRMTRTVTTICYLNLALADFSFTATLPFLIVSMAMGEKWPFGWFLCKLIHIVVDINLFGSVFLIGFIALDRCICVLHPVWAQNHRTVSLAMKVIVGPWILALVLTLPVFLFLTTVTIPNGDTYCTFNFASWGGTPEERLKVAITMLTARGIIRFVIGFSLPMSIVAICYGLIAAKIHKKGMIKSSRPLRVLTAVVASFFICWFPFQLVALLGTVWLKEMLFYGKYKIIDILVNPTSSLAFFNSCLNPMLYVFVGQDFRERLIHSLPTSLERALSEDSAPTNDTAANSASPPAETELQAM
Protocol: as §1, §2

[3] = target: T1, Hs_FPR1; assay: BRET receptor-RLuc8 interaction with Venus-mGsi; assay type: cell-based; conditions: for Log EC50 (M): log of EC50, HEK293 transient, 10 min; for Log EC50 (M) / Emax (%): mGsi BRET, mean, ND = no interaction detected; for Emax (%): % of response to 1 μM WKYMVm
How it was run: (§3)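 Cells were transiently cotransfected with C-terminal RLuc8-tagged FPR and Venus-mGsi or YFP-Arrestin 3 (1:4), then replated at 24 h and cultured a further 24–48 h. After 30 min in HBSS, coelenterazine h (5 μM final) was added 5 min before compound, with a 10 min incubation at 37 °C. Background-subtracted acceptor/donor ratio (N-BRET) was fitted by 3-parameter log(agonist) regression.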

[4] = target: T3, Mm_Fpr1 (Mus musculus, UniProt P33766); assay: BRET receptor-RLuc8 interaction with Venus-mGsi; assay type: cell-based; conditions: for Log EC50 (M): log of EC50, HEK293 transient, 10 min; for Log EC50 (M) / Emax (%): mGsi BRET, mean, ND = no interaction detected; for Emax (%): % of response to 1 μM WKYMVm
T3 construct: expressed in transfected cells
T3 sequence (P33766 1-364): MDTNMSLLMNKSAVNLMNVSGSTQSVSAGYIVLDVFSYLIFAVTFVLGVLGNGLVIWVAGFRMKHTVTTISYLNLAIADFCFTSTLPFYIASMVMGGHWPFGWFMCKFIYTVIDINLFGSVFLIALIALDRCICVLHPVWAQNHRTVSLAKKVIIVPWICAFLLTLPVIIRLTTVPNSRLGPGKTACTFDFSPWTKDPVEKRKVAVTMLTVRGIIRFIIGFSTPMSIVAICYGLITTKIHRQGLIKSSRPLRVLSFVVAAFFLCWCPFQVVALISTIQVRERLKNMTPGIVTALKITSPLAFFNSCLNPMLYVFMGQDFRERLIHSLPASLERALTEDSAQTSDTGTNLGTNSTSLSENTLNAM
How it was run: as §3

[5] = target: T4, Mm_Fpr2 (Mus musculus, UniProt O88536); assay: BRET receptor-RLuc8 interaction with Venus-mGsi; assay type: cell-based; conditions: for Log EC50 (M): log of EC50, HEK293 transient, 10 min; for Log EC50 (M) / Emax (%): mGsi BRET, mean, ND = no interaction detected; for Emax (%): % of response to 1 μM WKYMVm
T4 construct: expressed in transfected cells
T4 sequence (O88536 1-351): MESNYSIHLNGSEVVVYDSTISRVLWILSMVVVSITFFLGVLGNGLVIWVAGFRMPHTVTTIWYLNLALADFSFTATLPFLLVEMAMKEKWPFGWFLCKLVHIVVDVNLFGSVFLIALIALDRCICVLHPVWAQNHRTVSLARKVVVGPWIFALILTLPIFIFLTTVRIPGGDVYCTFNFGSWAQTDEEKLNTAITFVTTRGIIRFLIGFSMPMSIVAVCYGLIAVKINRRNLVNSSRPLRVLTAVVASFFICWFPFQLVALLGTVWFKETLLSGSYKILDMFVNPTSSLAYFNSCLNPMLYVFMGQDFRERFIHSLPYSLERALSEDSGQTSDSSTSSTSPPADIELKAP
How it was run: as §3

[6] = target: T3, Mm_Fpr1; assay: ERK1/2 phosphorylation by Western blotting; assay type: cell-based; set-up: Emax: dose or concentration left out as unconfirmed; conditions: for Log EC50 (M) / EC50: log of EC50, phosphorylation of ERK1/2, HEK293 stable cells; for Log EC50 (M) / Emax (%) / EC50: mean, ND = no pERK signal detected; for Emax (%): phospho-ERK, % of 1 μM WKYMVm
[7] = system: FPR2; conditions: read-out: EC50 arrestin recruitment, Pathhunter, cited from earlier work
[8] = target: T5, FLAG-tagged mouse Fpr2 (Mm_Fpr2) (mouse, UniProt O88536 1-351); assay: flow cytometry on cells; competition binding: HEK293 cells stably expressing the receptor, lifted in PBS, on ice 90 min with 10 nM K(5/6-FAM)-WKYMVm and increasing unlabeled ligand; mean fluorescence of 5000 cells as % of that without competitor; One site-Fit logIC50
T5 construct: mouse formyl peptide receptor 2; cDNA purchased (ThermoFisher); source: HEK293, stably expressed, on cells; not shown: FLAG, N-terminal, kept
T5 sequence (looked up): T4 sequence (O88536 1-351)

Molecule: Cc1cccc(-c2oc(C)nc2C(=O)Nc2cnn(Cc3nc(C(C)(F)F)co3)n2)c1 [ACT-389949]
- Log IC50 (M) [1]: −5.265 M
- Max Comp (%) [1]: 80.70%
- Log IC50 (M) [2]: −7.434 M
- Max Comp (%) [2]: 94.77%
- Log EC50 (M) [3]: −6.47 M
- Emax (%) [3]: 60.56%
- Log EC50 (M) [4]: −5.74 M
- Emax (%) [4]: 49.76%
- Log EC50 (M) [5]: −7.57 M
- Emax (%) [5]: 116.06%
- Log EC50 (M) [6]: −6.383 M
- Emax (%) [6]: 99.504%
- EC50 ([7]; FPR2): 20 nM

Molecule: COc1cc(F)c([C@@H]2CNC(=O)[C@H]2NC(=O)Nc2ccccc2)c(F)c1 [BMS-986235]
- IC50 [2]: 2440 nM
- competition with K(5/6-FAM)-WKYMVm ([2]; at 10 μM, incomplete competition): ~50%
- Max Comp (%) [2]: 60.14%
- EC50 [3]: 2240 nM
- Emax [3]: 7.4%
- EC50 [4]: 1410 nM
- Emax [4]: 21.7%
- EC50 [5]: 166 nM
- Emax [5]: 104%
- Emax [6]: 114%
- EC50 [6]: 982 nM
- EC50 ([7]; Hs_FPR2): 130 nM

Molecule: CCCCOc1ccc(C(=O)NN2C(=O)c3ccccc3NC2c2ccc(OC)cc2)cc1 (centres unmarked) [QuinC1]
- Log IC50 (M) [1]: −7.943 M
- Max Comp (%) [1]: 9.96%
- Log IC50 (M) [2]: −7.399 M
- Max Comp (%) [2]: 13.23%
- Log EC50 (M) [3]: −5.34 M
- Emax (%) [3]: 17.60%
- Log EC50 (M) [4]: −7.49 M
- Emax (%) [4]: 30.89%
- Log EC50 (M) [5]: −6.35 M
- Emax (%) [5]: 70.36%
- Log EC50 (M) [6]: −6.945 M
- Emax (%) [6]: 150.3%

Molecule: CSCC[C@H](NC(=O)[C@H](Cc1ccc(O)cc1)NC(=O)[C@H](CCCCN)NC(=O)[C@@H](N)Cc1c[nH]c2ccccc12)C(=O)N[C@H](C(=O)N[C@H](CCSC)C(N)=O)C(C)C [WKYMVm]
- Emax [3]: 112%
- Emax [4]: 109%
- Emax [5]: 103%
- Emax [6]: 102%

Molecule: CSCC[C@H](NC=O)C(=O)N[C@@H](CC(C)C)C(=O)N[C@@H](Cc1ccccc1)C(=O)N[C@@H](CCCCN)C(=O)O [fMLFK, fMet-Leu-Phe-Lys] (For-MLFK-OH)
- IC50 [1]: 586 nM
- Max Comp (%) [1]: 63.28%
- IC50 [2]: 1.47 nM
- Max Comp (%) [2]: 14.72%
- EC50 [3]: 85.1 nM
- Emax [3]: 104%
- EC50 [4]: 9550 nM
- Emax [4]: 62.9%
- EC50 [5]: 30200 nM
- Emax [5]: 82.7%
- Emax [6]: 140%
- EC50 [6]: 851 nM

Molecule: LESIFRSLLFRVM [MMK1]
- Log IC50 (M) [1]: −10.05 M
- Max Comp (%) [1]: 6.82%
- Log IC50 (M) [2]: −5.88 M
- Max Comp (%) [2]: 100%

B1: WKYMVm (peptide)
peptide: WKYMV[dM]
notes: the last residue is the D form; the bought peptide is probably also an amide (surmise); source: bought: Tocris
- Log IC50 [8]: -7.18 log M
- Max Comp (%) [8]: 97.5%

From paper PMC12881670, “Investigation into ligand selectivity and bias at the formyl peptide receptor family” (The Journal of Pharmacology and Experimental Therapeutics, 2025)
